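Cultured in 96-well plates, cells were exposed to test compound for 48 hours across five concentrations. Here, GI50 denotes the concentration required for 50% inhibition of growth. TGI: total growth inhibition.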
Assays:
Assay in all cases: growth of human tumour cells (NCI), 48 h
[1] = test system: 786-0 renal
[2] = test system: A498 renal
[3] = test system: A549 NSCLC
[4] = test system: ACHN renal
[5] = test system: BT-549 breast
[6] = test system: CAKI-1 renal
[7] = test system: CCRF-CEM leukemia
[8] = test system: DU-145 prostate
[9] = test system: EKVX NSCLC
[10] = test system: HCC-2998 colon
[11] = test system: HCT-116 colon
[12] = test system: HCT-15 colon
[13] = test system: HL-60(TB) leukemia
[14] = test system: HOP-62 NSCLC
[15] = test system: HOP-92 NSCLC
[16] = test system: HS 578T breast
[17] = test system: HT29 colon
[18] = test system: IGROV1 ovarian
[19] = test system: K-562 leukemia
[20] = test system: KM12 colon
[21] = test system: LOX IMVI melanoma
[22] = test system: MALME-3M melanoma
[23] = test system: MCF7 breast
[24] = test system: MDA-MB-231 breast
[25] = test system: MDA-MB-435
[26] = test system: MOLT-4 leukemia
[27] = test system: NCI-H226 lung
[28] = test system: NCI-H23 lung
[29] = test system: NCI-H460 lung
[30] = test system: NCI-H522 lung
[31] = test system: NCI/ADR-RES ovarian
[32] = test system: OVCAR-3 ovarian
[33] = test system: OVCAR-4 ovarian
[34] = test system: OVCAR-5 ovarian
[35] = test system: OVCAR-8 ovarian
[36] = test system: PC-3 prostate
[37] = test system: RPMI-8226 leukemia
[38] = test system: RXF 393 renal
[39] = test system: SF-268 CNS
[40] = test system: SF-295 CNS
[41] = test system: SF-539 CNS
[42] = test system: SK-MEL-2 melanoma
[43] = test system: SK-MEL-28 melanoma
[44] = test system: SK-MEL-5 melanoma
[45] = test system: SK-OV-3 ovarian
[46] = test system: SN12C renal
[47] = test system: SNB-19 CNS
[48] = test system: SNB-75 CNS
[49] = test system: SR leukemia
[50] = test system: SW-620 colon
[51] = test system: T-47D breast
[52] = test system: TK-10 renal
[53] = test system: U251 CNS
[54] = test system: UACC-257 melanoma
[55] = test system: UACC-62 melanoma
[56] = test system: UO-31 renal
[57] = test system: COLO 205 colon
[58] = test system: M14 melanoma

N#Cc1nc(-c2ccc(F)cc2)oc1S(=O)(=O)N1CCOCC1
GI50 [1]: 3.34 µM
TGI [1]: 11.7 µM
GI50 [2]: 15.6 µM
TGI [2]: 32 µM
GI50 [3]: 18.2 µM
TGI [3]: 38.7 µM
GI50 [4]: 1.74 µM
TGI [4]: 3.12 µM
GI50 [5]: 10.8 µM
TGI [5]: 23 µM
GI50 [6]: 2.12 µM
TGI [6]: 5.62 µM
GI50 [7]: 1.62 µM
TGI [7]: 7.35 µM
GI50 [8]: 2.23 µM
TGI [8]: 6.07 µM
GI50 [9]: 13.8 µM
TGI [9]: 37 µM
GI50 [10]: 11.9 µM
TGI [10]: 25.5 µM
GI50 [11]: 1.28 µM
TGI [11]: 3.07 µM
GI50 [12]: 1.98 µM
TGI [12]: 5.37 µM
GI50 [13]: 1.91 µM
TGI [13]: 4.76 µM
GI50 [14]: 10.8 µM
TGI [14]: 37.9 µM
GI50 [15]: 2.66 µM
TGI [15]: 9.48 µM
GI50 [16]: 15.1 µM
TGI [16]: 45.4 µM
GI50 [17]: 3.11 µM
TGI [17]: > 100 µM
GI50 [18]: 3.68 µM
TGI [18]: 14.6 µM
GI50 [19]: 1.7 µM
TGI [19]: 10.9 µM
GI50 [20]: 12 µM
TGI [20]: 26.3 µM
GI50 [21]: 1.02 µM
TGI [21]: 2.3 µM
GI50 [22]: 1.7 µM
TGI [22]: 4.23 µM
GI50 [23]: 2.65 µM
TGI [23]: 11.7 µM
GI50 [24]: 2.86 µM
TGI [24]: 8.64 µM
GI50 [25]: 2.38 µM
TGI [25]: 6.9 µM
GI50 [26]: 2.02 µM
TGI [26]: 5.49 µM
GI50 [27]: 4.33 µM
TGI [27]: 19.9 µM
GI50 [28]: 10.4 µM
TGI [28]: 25.4 µM
GI50 [29]: 12.6 µM
TGI [29]: 27.3 µM
GI50 [30]: 0.675 µM
TGI [30]: 3.13 µM
GI50 [31]: 13.4 µM
TGI [31]: 47.2 µM
GI50 [32]: 1.75 µM
TGI [32]: 3.18 µM
GI50 [33]: 3.08 µM
TGI [33]: 10.2 µM
GI50 [34]: 2.8 µM
TGI [34]: 9.38 µM
GI50 [35]: 4.71 µM
TGI [35]: 30.2 µM
GI50 [36]: 11.6 µM
TGI [36]: 26.9 µM
GI50 [37]: 1.55 µM
TGI [37]: 4.49 µM
GI50 [38]: 1.49 µM
TGI [38]: 2.92 µM
GI50 [39]: 11 µM
TGI [39]: 25.4 µM
GI50 [40]: 16.1 µM
TGI [40]: 30.6 µM
GI50 [41]: 1.88 µM
TGI [41]: 4.02 µM
GI50 [42]: 13.4 µM
TGI [42]: 27.5 µM
GI50 [43]: 2.41 µM
TGI [43]: 6.25 µM
GI50 [44]: 6.33 µM
TGI [44]: 18.8 µM
GI50 [45]: 23.4 µM
TGI [45]: 86.6 µM
GI50 [46]: 1.77 µM
TGI [46]: 4.1 µM
GI50 [47]: 13.7 µM
TGI [47]: 28 µM
GI50 [48]: 10.2 µM
TGI [48]: 22 µM
GI50 [49]: 0.439 µM
TGI [49]: 2.92 µM
GI50 [50]: 1.57 µM
TGI [50]: 3.24 µM
GI50 [51]: 2.11 µM
TGI [51]: 5.23 µM
GI50 [52]: 1.75 µM
TGI [52]: 3.26 µM
GI50 [53]: 14.5 µM
TGI [53]: 31.5 µM
GI50 [54]: 7 µM
TGI [54]: 20.7 µM
GI50 [55]: 4.79 µM
TGI [55]: 17.6 µM
GI50 [56]: 1.62 µM
TGI [56]: 2.97 µM

CCOc1ccc(N=C/C=C(\Cl)c2ccc3ccccc3c2)cc1
TGI [1]: 26.7 µM
TGI [2]: > 94.5 µM
TGI [3]: > 100 µM
TGI [4]: 32.7 µM
TGI [5]: 40.4 µM
TGI [6]: 34 µM
TGI [57]: 37.7 µM
TGI [8]: 30.7 µM
TGI [9]: 62.1 µM
TGI [11]: 21.6 µM
TGI [12]: 30.2 µM
TGI [13]: 33.8 µM
TGI [14]: 29.8 µM
TGI [15]: 33.3 µM
TGI [16]: 82.2 µM
TGI [17]: 33.3 µM
TGI [18]: 41.5 µM
TGI [19]: 23.7 µM
TGI [20]: 33.9 µM
TGI [21]: 15.3 µM
TGI [58]: 37.7 µM
TGI [22]: 30.6 µM
TGI [23]: 55.1 µM
TGI [24]: 30.9 µM
TGI [25]: 43.9 µM
TGI [26]: 6.16 µM
TGI [27]: 53.7 µM
TGI [28]: 25.1 µM
TGI [29]: 44.8 µM
TGI [30]: 52.1 µM
TGI [31]: 31.8 µM
TGI [32]: 31.5 µM
TGI [33]: 26.3 µM
TGI [34]: 36.3 µM
TGI [35]: 32.8 µM
TGI [36]: 36 µM
TGI [37]: 24.7 µM
TGI [38]: 34.1 µM
TGI [39]: 37.4 µM
TGI [40]: 36 µM
TGI [41]: 39 µM
TGI [42]: 42.7 µM
TGI [43]: 31.4 µM
TGI [44]: 31 µM
TGI [45]: 38.4 µM
TGI [46]: 33.9 µM
TGI [47]: 35.7 µM
TGI [48]: 33.4 µM
TGI [49]: 5.31 µM
TGI [50]: 36.5 µM
TGI [51]: 22.3 µM
TGI [52]: 35.7 µM
TGI [53]: 33.4 µM
TGI [54]: 30.8 µM
TGI [55]: 31 µM
TGI [56]: 29.9 µM

Reference: PubChem BioAssay (NCI)
